Results on 15 compounds are retold here after paper PMC4979527, “Post-translational allosteric activation of the P2X7 receptor through glycosaminoglycan chains of CD44 proteoglycans” (Cell Death Discovery, 2015).

Data set [1] addresses T1, P2X7 receptor (Cricetulus griseus, UniProt A0A9J7FWH6).
T1 sequence (A0A9J7FWH6 1-593): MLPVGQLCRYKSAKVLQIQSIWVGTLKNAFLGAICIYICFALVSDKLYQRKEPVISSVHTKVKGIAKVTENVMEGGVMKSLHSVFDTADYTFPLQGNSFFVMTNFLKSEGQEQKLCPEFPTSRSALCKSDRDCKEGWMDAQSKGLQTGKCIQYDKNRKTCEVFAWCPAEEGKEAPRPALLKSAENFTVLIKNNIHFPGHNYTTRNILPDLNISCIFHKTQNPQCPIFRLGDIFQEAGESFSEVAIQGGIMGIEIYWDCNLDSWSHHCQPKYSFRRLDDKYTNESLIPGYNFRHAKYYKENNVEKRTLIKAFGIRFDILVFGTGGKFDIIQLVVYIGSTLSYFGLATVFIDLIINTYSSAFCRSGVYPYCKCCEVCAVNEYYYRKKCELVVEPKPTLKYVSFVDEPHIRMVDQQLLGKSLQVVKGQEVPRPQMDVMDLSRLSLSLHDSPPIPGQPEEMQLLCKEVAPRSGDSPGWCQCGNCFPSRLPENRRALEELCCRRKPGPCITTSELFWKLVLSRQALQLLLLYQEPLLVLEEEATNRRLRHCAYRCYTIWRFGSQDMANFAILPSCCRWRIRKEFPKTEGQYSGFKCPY
The data set is described as follows: Cytoplasmic Ca2+ influx (Fluo-4, Flex Station 3) in wild-type CHO-K1 cells. It is filed as cell-based, Chinese hamster. Particulars: for Increase of Ca2+cyt response by heparin pre-treatment: heparin pre-incubation 5 min (10-100 μM). As for the experimental part:
(§1) Cytoplasmic Ca^2+ influx, [Ca^2+]cyt, measurements were monitored through changes of the Fluo-4 fluorescence intensity in real time using the Flex Station 3 microplate reader system. CHO-K1 (●-●) and CHO-745 ([…]-[…]) cells were seeded onto black 96-well plates (10^4 cells/well). Then, the cells were incubated with Fluo-4 for 1 h at 37 °C. […] The data represent the mean±S.E.M. (N=6).
(§2) Subsequently, the cells were incubated with Fluo-4 Direct Calcium Assay reagent for 1 h at 37 °C, according to the manufacturer’s instructions. The samples were stimulated with different agonists, and the fluorescence was quantified using a Flex Station 3 microplate reader (Molecular Devices, Sunnyvale, CA, USA). The Fluo-4 was excited at 490 nm and the emission was detected at 525 nm.[57]

For data set [2], the target named is T1, P2X7 receptor. The data set is described as follows: Cytoplasmic Ca2+ influx (Fluo-4, Flex Station 3) in mutant CHO-745 cells defective in GAGs. The data set is classed as cell-based, Chinese hamster. The following applies: for Increase of Ca2+ response by heparin pre-treatment: heparin pre-incubation 5 min (10-100 μM). As for the experimental part: as §1, §2

The test system of data set [3] is P2 receptors. The data set is described as follows: Cytoplasmic Ca2+ influx (Fluo-4) in CHO cells, both lines. The data set is classed as cell-based, Chinese hamster. Particulars: for Intracellular Ca2+ increase on agonist addition: CHO cells, concentration-response curves; for Modulation of BzATP-stimulated Ca2+ influx by divalent cation: high concentration of cation (10 mM MgCl2; Cu2+ vs 100 μM BzATP), CHO-K1 and CHO-745. On the procedure:
as §1, §2

The test system of data set [4] is CHO-K1 and CHO-745 cells. The data set is described as follows: Cell viability (MTT) and cell death (annexin V-APC/7-AAD) assay. The data set is classed as cell-based. Particulars: 24 h; for Morphology of CHO cultures (phase contrast microscopy): 4 mM ATP or 1 mM BzATP; for Cell death (MTT assay): high concentration (ATP >1 mM, BzATP >500 μM), both lines. As for the experimental part:
The viability of CHO cell lines was determined using the MTT assay.[58] […] The medium was removed, 100 μl of MTT (1 mg/ml) was added to each well and the cells were incubated again at 37 °C for 4 h. The supernatant was removed and 200 μl/well of DMSO was added to solubilize the formazan crystals formed. The absorbance was read at 570 nm using a microplate reader, and the cell viability was determined using the standard reduction of the MTT. The results were expressed relative to control cell viability (100%).
Cell death was investigated using annexin V-APC/7-AAD double staining and was analyzed through flow cytometry.[57],[59] […] The suspensions were transferred to tubes, centrifuged and resuspended with annexin V-APC and 7-AAD according to the manufacturer’s instructions. The cells were incubated at room temperature for 30 min, and the viable, apoptotic or necrotic cell populations were evaluated through flow cytometry. The data were collected using a FACSCalibur flow cytometer (Becton–Dickinson) and CellQuest software (Becton–Dickinson), followed by analysis using FlowJo software (Tree Star). […] The results were calculated as the percentage of cell death compared with the control.

For data set [5], the target named is T1, P2X7 receptor. Particulars: 4 mM ATP. As for the experimental part: P2X7 pore formation was functionality examined in CHO cells by analyzing PI uptake using a FACSCalibur flow cytometer (Becton–Dickinson). The cells were seeded onto six-well plates (10^6 cells/well) and maintained for 48 h at 37 °C under an atmosphere of 5% (v/v) CO2. Subsequently, the cells were harvested using 10 mM EDTA/PBS and adjusted to a concentration of 10^6 cells per tube. The samples were incubated with 5 μM of PI at a final volume of 200 μl/well in fresh serum-free medium F12 for 15 min, followed by the addition of 4 mM ATP and incubation at 37 °C for 30, 60 and 120 min, respectively. The intensity of dye uptake was immediately determined. A total of 10 000 events were collected for each sample.[60],[61]

Where [6] appears, read: CHO-K1, in presence of 10 mM Mg2+ (MgCl2).
Setting [7] is: CHO-745, in presence of 10 mM Mg2+ (MgCl2).

“Also recorded” adds a separate entry of the source.

For `Nc1ncnc2c1ncn2[C@@H]1O[C@H](COP(=O)(O)OP(=O)(O)OP(=O)(O)O)[C@@H](OC(=O)c2ccc(C(=O)c3ccccc3)cc2)[C@H]1O` (relative stereo) [BzATP+Mg^2+], in data set [1] (setting [6]), the Emax worked out at 153±6 URF and the Hill coefficient is given as 1.5±0.1. In data set [2] (setting [7]), the Emax amounted to 119±10 URF and the Hill coefficient worked out at 2.8±0.3.

Consider `Nc1ncnc2c1ncn2[C@@H]1O[C@H](COP(=O)(O)OP(=O)(O)OP(=O)(O)O)[C@@H](OC(=O)c2ccc(C(=O)c3ccccc3)cc2)[C@H]1O` (relative stereo) [BzATP, 2′(3′)-O-(4-benzoylbenzoyl)adenosine 5′-triphosphate], for which the Emax was 275±8 URF in data set [1] (CHO-K1, Ca2+ influx); 153±6 URF in data set [1] (setting [6]); 136±6 URF in data set [2] (CHO-745, Ca2+ influx); 119±10 URF in data set [2] (setting [7]). The Hill coefficient in data set [1] (CHO-K1, Ca2+ influx) was determined as 1.0±0.1; in data set [2] (CHO-745, Ca2+ influx), 1.8±0.2; in data set [2] (setting [7]), 2.8±0.3. Also, the “Intracellular Ca2+ increase on agonist addition” value (“Intracellular Ca2+ increase” below) in data set [3] is listed as “promoted Ca^2+ increase”. In data set [4], the “Morphology of CHO cultures (phase contrast microscopy)” value is “increased morphological changes and cell detachment”. In data set [4], the “Cell death (MTT assay)” value is “promoted cell death”.

For `CSc1nc(N)c2ncn([C@@H]3O[C@H](COP(=O)(O)OP(=O)(O)OP(=O)(O)O)[C@@H](O)[C@H]3O)c2n1` [2-MeSATP, 2-(methylthio)adenosine 5′-triphosphate], the “Intracellular Ca2+ increase” value in data set [3] is “did not increase intracellular Ca^2+”.

On to `Nc1ncnc2c1ncn2[C@@H]1O[C@H](COP(=O)(O)OP(=O)(O)O)[C@@H](O)[C@H]1O` [ADP, adenosine 5′-diphosphate], for which, in data set [3], the “Intracellular Ca2+ increase” value is “promoted Ca^2+ increase”.

In data set [1] (CHO-K1, Ca2+ influx), `Nc1ncnc2c1ncn2[C@@H]1O[C@H](COP(=O)(O)OP(=O)(O)OP(=O)(O)O)[C@@H](O)[C@H]1O` [ATP, adenosine 5′-triphosphate] showed an Emax of 258±10 URF and a Hill coefficient of 0.9±0.1. In data set [2] (CHO-745, Ca2+ influx), the Emax came to 97±7 URF and the Hill coefficient came out at 2.0±0.3. In data set [3], the “Intracellular Ca2+ increase” value is recorded as “promoted Ca^2+ increase”. Further, the “Sensitivity to PI accumulation, CHO-745 less sensitive than CHO-K1” value in data set [5] was determined as 2.5 fold. For the same compound, the “Propidium iodide (PI) uptake” value in data set [5] (CHO cells, after 30 min at 37 °C) is listed as “induced the time-dependent uptake of propidium iodide”. Besides, in data set [4], the “Morphology of CHO cultures (phase contrast microscopy)” value is “increased morphological changes and cell detachment”; the “Cell death (MTT assay)” value is reported as “promoted cell death”.

Regarding `[Cu+2]` [Cu^2+], in data set [3], the “Modulation of BzATP-stimulated Ca2+ influx by divalent cation” value is “negatively modulated”.

`[Mg+2]` [Mg^2+]: the “Modulation of BzATP-stimulated Ca2+ influx by divalent cation” value in data set [3] is reported as “negatively modulated”.

Turning to `O=c1ccn([C@@H]2O[C@H](COP(=O)(O)OP(=O)(O)O)[C@@H](O)[C@H]2O)c(=O)[nH]1` [UDP, uridine 5′-diphosphate], the “Intracellular Ca2+ increase” value in data set [3] is listed as “promoted Ca^2+ increase”.

Consider `O=c1ccn([C@@H]2O[C@H](COP(=O)(O)OP(=O)(O)OP(=O)(O)O)[C@@H](O)[C@H]2O)c(=O)[nH]1` [UTP, uridine 5′-triphosphate], for which, in data set [3], the “Intracellular Ca2+ increase” value was “promoted Ca^2+ increase”.

As to `[Na+].[O-][Cl+2]([O-])[O-]` [chlorate, sodium chlorate], the “Inhibition of total P2X7 agonist (ATP or BzATP) response” value in data set [1] (CHO-K1, pre-treatment 20 or 50 mM sodium chlorate, 24 h) was ~ 35%. Moreover, the “Effect on P2X7 agonist response” value in data set [2] (CHO-745, pre-treatment 20 or 50 mM sodium chlorate) is recorded as “did not block the P2X7 agonist response”.

`Nc1ncnc2c1ncn2[C@@H](C=O)O[C@@H](C=O)COP(=O)(O)OP(=O)(O)OP(=O)(O)O` [oxATP, adenosine 5′-triphosphate periodate oxidized]: the “Effect of antagonist on BzATP-evoked Ca2+ influx” value in data set [1] (CHO-K1, 300 μM oxATP, 100 μM BzATP) is “abolished the effect of BzATP”; in data set [2] (CHO-745, 300 μM oxATP, 100 μM BzATP), “abolished the effect of BzATP”.

Turning to `O=[N+]([O-])c1ccccc1O[C@@H]1OC[C@@H](O)[C@H](O)[C@H]1O` [xylosides, o-nitrophenyl-β-D-xylopyranoside], the “Inhibition of response induced through BzATP-gated P2X7” value in data set [1] (CHO-K1, 2 mM xyloside pre-treatment (120 h), 3 μM BzATP) was 82%. The “Inhibition of response induced through ATP-gated P2X7” value in data set [1] (CHO-K1, 2 mM xyloside pre-treatment (120 h), 10 μM ATP) was found to be 55%. Moreover, in data set [2] (CHO-745, 2 mM xyloside pre-treatment), the “Effect on P2X7 agonist response” value is “did not block the P2X7 agonist response”.

Consider `Nc1ncnc2c1ncn2C1OC(COP(=O)(O)CP(=O)(O)OP(=O)(O)O)C(O)C1O` (stereo not drawn) [αβ-MeATP, α,β-methyleneadenosine 5′-triphosphate], for which the “Intracellular Ca2+ increase” value in data set [3] is listed as “did not increase intracellular Ca^2+”.

For the compound `Nc1ncnc2c1ncn2C1OC(COP(=O)(O)OP(=O)(O)CP(=O)(O)O)C(O)C1O` (stereo not drawn) [βγ-MeATP, β,γ-methyleneadenosine 5′-triphosphate], in data set [3], the “Intracellular Ca2+ increase” value is reported as “did not increase intracellular Ca^2+”.

Regarding heparin, the “Increase of Ca2+cyt response by heparin pre-treatment” value in data set [1] (CHO-K1, 10 μM ATP) was found to be 120%; in data set [1] (CHO-K1, 1 mM ATP), 78%. For the same compound, in data set [1] (CHO-K1, 100 μM heparin, 3 μM BzATP), the “Potentiation of Ca2+ influx” value came to 2.2 fold. Also, the “Increase of Ca2+ response by heparin pre-treatment” value in data set [2] (CHO-745, 10 μM ATP) worked out at 40%; in data set [2] (CHO-745, 1 mM ATP), 50%. The “Effect of heparin on Ca2+ influx at saturating agonist” value in data set [3] (BzATP >100 μM or ATP >4 mM) is recorded as “induced no further increase in Ca^2+ influx”. In addition, the “P2X7 stimulation by heparin alone” value in data set [3] (absence of ATP or BzATP, highest heparin concentration) is on record as “did not elicit P2X7 stimulation; also recorded: did not elicit discernible P2X7 activation”.
